Where a name gives a salt, the structure may show the parent alone.
target: T1, PD-L1/PD-1 complex formation (Homo sapiens, UniProt Q9NZQ7); assay: PD-L1/PD-1 Interaction Assay (ELISA platform); format: binding; conditions: human PD-1-Fc coated plates, PD-L1-Fc-biotin 0.1 μg/ml, compounds pre-incubated 2 hours
T1 construct: purchased BPS Bioscience
Procedure: The ability of compounds to block PD-L1/PD-1 complex formation was evaluated using biochemical interaction assay based on the ELISA platform.
EIA/RIA high binding 96-well plates (Costar) were coated with human PD-1-Fc protein diluted in PBS to 0.5 μg/ml overnight at 4° C. The PD-1-Fc coated plates were washed in PBST and blocked in blocking buffer (2% BSA in PBST). Serially diluted compounds were pre-incubated with PD-L1-Fc-biotin (0.1 μg/ml final) for 2 hours on a shaker at room temperature. The PD-1-Fc coated plates were washed with PBST and solutions containing PD-L1 and compounds were added to the plates. The PD-1-Fc coated plates were incubated with PD-L1 and compound solution for 2 hours on a shaker at room temperature. After the incubation unbound PD-L1 was washed away with PBST and plates were incubated with the blocking buffer for 10 minutes. The bound PD-L1-Fc-biotin was detected with streptavidin-HRP and TMB substrate. The plates were read at OD450 nm in a plate reader (i3 from Molecular Devices) and percentages of inhibition of PD-L1/PD-1 complex formation were calculated.
PD-1-Fc protein was made at Polaris and PD-L1-Fc was purchased from BPS Bioscience.

T1 sequence (Q9NZQ7 19-239 limits assumed, one chain of several): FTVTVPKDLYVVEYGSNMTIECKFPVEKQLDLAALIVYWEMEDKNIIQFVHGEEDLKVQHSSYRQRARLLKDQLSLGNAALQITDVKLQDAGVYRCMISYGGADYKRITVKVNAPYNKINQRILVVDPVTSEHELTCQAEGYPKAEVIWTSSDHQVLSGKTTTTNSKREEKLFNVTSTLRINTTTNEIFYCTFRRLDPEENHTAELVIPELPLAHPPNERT

| SMILES | IC50 [nM] |
| --- | --- |
| Cc1c(COc2ccc(CN3CCCC[C@H]3C(N)=O)cc2Br)cccc1-c1cccc(COc2ccc(CN3CCCC[C@H]3C(N)=O)cc2Br)c1C [Example 23, (2S,2′S)-1,1′-(((((2,2′-Dimethyl-[1,1′-biphenyl]-3,3′-diyl)bis(methylene))bis(oxy))bis(3-bromo-4,1-phenylene))bis(methylene))bis(piperidine-2-carboxamide)] | 1010 to 30000 |
| C#Cc1cc(CN2CCCC[C@H]2C(=O)O)ccc1OCc1cccc(-c2cccc(COc3ccc(CN4CCCC[C@H]4C(=O)O)cc3C#C)c2C)c1C [Example 26, (2S,2′S)-1,1′-(((((2,2′-Dimethyl-[1,1′-biphenyl]-3,3′-diyl)bis(methylene))bis(oxy))bis(3-ethynyl-4,1-phenylene))bis(methylene))bis(piperidine-2-carboxylic acid) di-trifluoroacetic acid salt] | 11 to 100 |
| CCc1cc(CN2CCCC[C@H]2C(=O)O)ccc1OCc1cccc(-c2cccc(COc3ccc(CN4CCCC[C@H]4C(=O)O)cc3CC)c2C)c1C [Example 27, (2S,2′S)-1,1′-(((((2,2′-Dimethyl-[1,1′-biphenyl]-3,3′-diyl)bis(methylene))bis(oxy))bis(3-ethyl-4,1-phenylene))bis(methylene))bis(piperidine-2-carboxylic acid) di-trifluoroacetic acid salt] | 110 to 1000 |
| Cc1c(COc2ccc(CN3CCCC[C@H]3C(=O)O)cc2C(F)F)cccc1-c1cccc(COc2ccc(CN3CCCC[C@H]3C(=O)O)cc2C(F)F)c1C [Example 29, (2S,2′S)-1,1′-(((((2,2′-Dimethyl-[1,1′-biphenyl]-3,3′-diyl)bis(methylene))bis(oxy))bis(3-(difluoromethyl)-4,1-phenylene))bis(methylene))bis(piperidine-2-carboxylic acid) di-trifluoroacetic acid salt] | 0.1 to 10 |
| COc1nc(OCc2cccc(-c3cccc(COc4ccc(CNCCNC(C)=O)c(OC)n4)c3C)c2C)ccc1CNCCNC(C)=O [Example 3, N,N′-(((((((2,2′-Dimethyl-[1,1′-biphenyl]-3,3′-diyl)bis(methylene))bis(oxy))bis(2-methoxypyridine-6,3-diyl))bis(methylene))bis(azanediyl))bis(ethane-2,1-diyl))diacetamide] | 11 to 100 |
| Cc1c(COc2ccc(CN(CC(=O)O)CC(=O)O)cc2Br)cccc1-c1cccc(COc2ccc(CN(CC(=O)O)CC(=O)O)cc2Br)c1C [Example 30, 2,2′,2″,2′″-((((((2,2′-Dimethyl-[1,1′-biphenyl]-3,3′-diyl)bis(methylene))bis(oxy))bis(3-bromo-4,1-phenylene))bis(methylene))bis(azanetriyl))tetraacetic acid di-trifluoroacetic acid salt] | 110 to 1000 |
| Cc1c(COc2ccc(CN3CCCC[C@H]3C(=O)NCCN(C)C)cc2Br)cccc1-c1cccc(COc2ccc(CN3CCCC[C@H]3C(=O)NCCN(C)C)cc2Br)c1C [Example 25, (2S,2′S)-1,1′-(((((2,2′-Dimethyl-[1,1′-biphenyl]-3,3′-diyl)bis(methylene))bis(oxy))bis(3-bromo-4,1-phenylene))bis(methylene))bis(N-(2-(dimethylamino)ethyl)piperidine-2-carboxamide)] | 1010 to 30000 |
| Cc1c(COc2ccc(CN3CCCC[C@@H]3C(=O)O)cc2Br)cccc1-c1cccc(COc2ccc(CN3CCCC[C@@H]3C(=O)O)cc2Br)c1C [Example 2, (2R,2′R)-1,1′-(((((2,2′-dimethyl-[1,1′-biphenyl]-3,3′-diyl)bis(methylene))bis(oxy))bis(3-bromo-4,1-phenylene))bis(methylene))bis(piperidine-2-carboxylic acid)] | 11 to 100 |
| CSc1cc(CN2CCCC[C@H]2C(=O)O)ccc1OCc1cccc(-c2cccc(COc3ccc(CN4CCCC[C@H]4C(=O)O)cc3SC)c2C)c1C [Example 28, (2S,2′S)-1,1′-(((((2,2′-Dimethyl-[1,1′-biphenyl]-3,3′-diyl)bis(methylene))bis(oxy))bis(3-(methylthio)-4,1-phenylene))bis(methylene))bis(piperidine-2-carboxylic acid) di-trifluoroacetic acid salt] | 110 to 1000 |
| Cc1c(COc2ccc(CN3CCCC[C@H]3C(=O)NCCO)cc2Br)cccc1-c1cccc(COc2ccc(CN3CCCC[C@H]3C(=O)NCCO)cc2Br)c1C [Example 24, (2S,2′S)-1,1′-(((((2,2′-Dimethyl-[1,1′-biphenyl]-3,3′-diyl)bis(methylene))bis(oxy))bis(3-bromo-4,1-phenylene))bis(methylene))bis(N-(2-hydroxyethyl)piperidine-2-carboxamide)] | 110 to 1000 |
| COC(=O)[C@@H]1CCCCN1Cc1ccc(OCc2cccc(-c3cccc(COc4ccc(CN5CCCC[C@H]5C(=O)OC)cc4Br)c3C)c2C)c(Br)c1 [Example 4, Dimethyl 1,1′-(((((2,2′-dimethyl-[1,1′-biphenyl]-3,3′-diyl)bis(methylene))bis(oxy))bis(3-bromo-4,1-phenylene))bis(methylene))(2S,2′S)-bis(piperidine-2-carboxylate)] | > 30000 |

The next lines start with the values.

| IC50 [nM] | SMILES |
| --- | --- |
| 11 to 100 | Cc1c(COc2ccc(CN[C@H](C)C(=O)O)cc2Br)cccc1-c1cccc(COc2ccc(CN[C@H](C)C(=O)O)cc2Br)c1C [Example 16, (2R,2′R)-2,2′-((((((2,2′-Dimethyl-[1,1′-biphenyl]-3,3′-diyl)bis(methylene))bis(oxy))bis(3-bromo-4,1-phenylene))bis(methylene))bis(azanediyl))dipropionic acid di-trifluoroacetic acid salt] |
| 0.1 to 10 | Cc1c(COc2ccc(CNC(C)(CO)CO)cc2Br)cccc1-c1cccc(COc2ccc(CNC(C)(CO)CO)cc2Br)c1C [Example 33, 2,2′-((((((2,2′-Dimethyl-[1,1′-biphenyl]-3,3′-diyl)bis(methylene))bis(oxy))bis(3-bromo-4,1-phenylene))bis(methylene))bis(azanediyl))bis(2-methylpropane-1,3-diol) di-trifluoroacetic acid salt] |
| 0.1 to 10 | Cc1c(COc2ccc(CN[C@@H](C(=O)O)[C@H](C)O)cc2Br)cccc1-c1cccc(COc2ccc(CN[C@@H](C(=O)O)[C@H](C)O)cc2Br)c1C [Example 18, (2R,2′R,3S,3′S)-2,2′-((((((2,2′-Dimethyl-[1,1′-biphenyl]-3,3′-diyl)bis(methylene))bis(oxy))bis(3-bromo-4,1-phenylene))bis(methylene))bis(azanediyl))bis(3-hydroxybutanoic acid) di-trifluoroacetic acid salt] |
| 0.1 to 10 | Cc1c(COc2ccc(CNCCO)cc2Br)cccc1-c1cccc(COc2ccc(CNCCO)cc2Br)c1C [Example 5, 2,2′-((((((2,2′-Dimethyl-[1,1′-biphenyl]-3,3′-diyl)bis(methylene))bis(oxy))bis(3-bromo-4,1-phenylene))bis(methylene))bis(azanediyl))bis(ethan-1-ol) di-trifluoroacetic acid salt] |
| 11 to 100 | Cc1c(COc2ccc(CN(CCO)CCO)cc2Br)cccc1-c1cccc(COc2ccc(CN(CCO)CCO)cc2Br)c1C [Example 31, 2,2′,2″,2′″-((((((2,2′-Dimethyl-[1,1′-biphenyl]-3,3′-diyl)bis(methylene))bis(oxy))bis(3-bromo-4,1-phenylene))bis(methylene))bis(azanetriyl))tetrakis(ethan-1-ol) di-trifluoroacetic acid salt] |
| 0.1 to 10 | Cc1c(COc2ccc(CNC(CO)CO)cc2Br)cccc1-c1cccc(COc2ccc(CNC(CO)CO)cc2Br)c1C [Example 32, 2,2′-((((((2,2′-Dimethyl-[1,1′-biphenyl]-3,3′-diyl)bis(methylene))bis(oxy))bis(3-bromo-4,1-phenylene))bis(methylene))bis(azanediyl))bis(propane-1,3-diol) di-trifluoroacetic acid salt] |
| 0.1 to 10 | Cc1c(COc2ccc(CN[C@@H](C)C(=O)O)cc2Br)cccc1-c1cccc(COc2ccc(CN[C@@H](C)C(=O)O)cc2Br)c1C [Example 15, (2S,2′S)-2,2′-((((((2,2′-Dimethyl-[1,1′-biphenyl]-3,3′-diyl)bis(methylene))bis(oxy))bis(3-bromo-4,1-phenylene))bis(methylene))bis(azanediyl))dipropionic acid di-trifluoroacetic acid salt] |
| 0.1 to 10 | Cc1c(COc2ccc(CN[C@H](CO)C(=O)O)cc2Br)cccc1-c1cccc(COc2ccc(CN[C@H](CO)C(=O)O)cc2Br)c1C [Example 17, (2R,2′R)-2,2′-((((((2,2′-Dimethyl-[1,1′-biphenyl]-3,3′-diyl)bis(methylene))bis(oxy))bis(3-bromo-4,1-phenylene))bis(methylene))bis(azanediyl))bis(3-hydroxypropanoic acid) di-trifluoroacetic acid salt] |
| 0.1 to 10 | Cc1c(COc2ccc(CNC(C)(C)C(=O)O)cc2Br)cccc1-c1cccc(COc2ccc(CNC(C)(C)C(=O)O)cc2Br)c1C [Example 14, 2,2′-((((((2,2′-Dimethyl-[1,1′-biphenyl]-3,3′-diyl)bis(methylene))bis(oxy))bis(3-bromo-4,1-phenylene))bis(methylene))bis(azanediyl))bis(2-methylpropanoic acid) di-trifluoroacetic acid salt] |

From patent US20180065917A1, “IMMUNE CHECKPOINT INHIBITORS, COMPOSITIONS AND METHODS THEREOF” (Polaris Pharmaceuticals, Inc., priority 2016, published 2018)
